The record followed here is article PMC10266040 (Proceedings of the National Academy of Sciences of the …, 2023).

SMILES strings stand for the structures. Positions count from the first letter of the chain named.

For test [1], the target named is T1, ETR1 (Arabidopsis thaliana, UniProt P49333, K91R).
T1 sequence (P49333 1-738 K91R): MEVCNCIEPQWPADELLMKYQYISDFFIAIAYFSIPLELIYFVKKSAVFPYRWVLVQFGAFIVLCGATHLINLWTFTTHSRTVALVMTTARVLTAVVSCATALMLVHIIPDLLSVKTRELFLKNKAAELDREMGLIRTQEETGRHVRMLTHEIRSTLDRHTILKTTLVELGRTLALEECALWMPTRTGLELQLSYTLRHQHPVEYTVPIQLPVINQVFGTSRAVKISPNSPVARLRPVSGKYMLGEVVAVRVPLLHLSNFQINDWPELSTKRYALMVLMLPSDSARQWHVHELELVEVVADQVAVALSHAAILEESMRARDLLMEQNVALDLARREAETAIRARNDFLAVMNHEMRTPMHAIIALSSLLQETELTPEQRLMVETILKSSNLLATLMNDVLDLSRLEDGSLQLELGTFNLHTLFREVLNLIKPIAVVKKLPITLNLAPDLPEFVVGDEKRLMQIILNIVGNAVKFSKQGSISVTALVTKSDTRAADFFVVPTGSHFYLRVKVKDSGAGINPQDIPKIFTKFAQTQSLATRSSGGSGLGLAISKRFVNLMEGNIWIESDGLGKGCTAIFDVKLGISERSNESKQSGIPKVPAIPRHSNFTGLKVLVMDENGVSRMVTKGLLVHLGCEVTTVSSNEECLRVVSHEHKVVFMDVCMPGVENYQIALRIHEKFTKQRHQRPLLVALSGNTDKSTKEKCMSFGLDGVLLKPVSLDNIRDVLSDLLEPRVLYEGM
Briefly: saturable […]ethylene radioligand binding to yeast expressing the mutant.

Test [2] deals with T2, ETR1 (Arabidopsis thaliana, UniProt P49333, K91M).
T2 sequence (P49333 1-738 K91M): T1 sequence (P49333 1-738 K91R) with R91M
The description is as above.

As for `C=C` [ethylene], the “% of wildtype binding” value on ETR1 [1] is given as 63 % of wildtype binding; on ETR1 [2] it was ~ 6 % of wildtype binding.
